What was measured:
SN12C = conditions: single dose 10 μM; renal carcinoma
EKVX = conditions: single dose 10 μM; non-small lung carcinoma
UACC-257 = conditions: single dose 10 μM; melanoma
MALME-3M = conditions: single dose 10 μM; melanoma
CAKI-1 = conditions: single dose 10 μM; renal carcinoma
[1] = system: NCI 60 cancer cell line panel; assay: NCI 60 full panel summary; conditions: single dose 10 μM; mean over the NCI 60 panel
SR = conditions: single dose 10 μM; leukemia
RPMI-8226 = conditions: single dose 10 μM; leukemia
SNB-19 = conditions: single dose 10 μM; CNS cancer
K-562 = conditions: single dose 10 μM; leukemia
786–0 = conditions: single dose 10 μM; renal carcinoma
MDA-MB-468 = conditions: single dose 10 μM; breast carcinoma
MCF7 = conditions: single dose 10 μM; breast carcinoma
SNB-75 = conditions: single dose 10 μM; CNS cancer
SF-539 = conditions: single dose 10 μM; CNS cancer
TK-10 = conditions: single dose 10 μM; renal carcinoma
MOLT-4 = conditions: single dose 10 μM; leukemia
SK-OV-3 = conditions: single dose 10 μM; ovarian carcinoma
T-47D = conditions: single dose 10 μM; breast carcinoma
BT-549 = conditions: single dose 10 μM; breast carcinoma
HL-60(TB) = conditions: single dose 10 μM; leukemia
UO-31 = conditions: single dose 10 μM; renal carcinoma
NCI-H522 = conditions: single dose 10 μM; non-small lung carcinoma
SF-295 = conditions: single dose 10 μM; CNS cancer
HOP-62 = conditions: single dose 10 μM; non-small lung carcinoma
NCI-H226 = conditions: single dose 10 μM; non-small lung carcinoma
HOP-92 = conditions: single dose 10 μM; non-small lung carcinoma
CCRF-CEM = conditions: single dose 10 μM; leukemia
LOX IMVI = conditions: single dose 10 μM; melanoma
PC-3 = conditions: single dose 10 μM; prostate carcinoma
OVCAR-5 = conditions: single dose 10 μM; ovarian carcinoma
UACC-62 = conditions: single dose 10 μM; melanoma
ACHN = conditions: single dose 10 μM; renal carcinoma
KM12 = conditions: single dose 10 μM; colon cancer
HCC-2998 = conditions: single dose 10 μM; colon cancer
U251 = conditions: single dose 10 μM; CNS cancer
A549/ATCC = conditions: single dose 10 μM; non-small lung carcinoma
SK-MEL-28 = conditions: single dose 10 μM; melanoma
A498 = conditions: single dose 10 μM; renal carcinoma
SK-MEL-5 = conditions: single dose 10 μM; melanoma
SW-620 = conditions: single dose 10 μM; colon cancer
HCT-116 = conditions: single dose 10 μM; colon cancer
SK-MEL-2 = conditions: single dose 10 μM; melanoma
HCT-15 = conditions: single dose 10 μM; colon cancer
HT29 = conditions: single dose 10 μM; colon cancer
M14 = conditions: single dose 10 μM; melanoma
MDA-MB-435 = conditions: single dose 10 μM; melanoma

Compound: 1-(1H-Benzo[d]imidazol-2-yl)-3-(5-(benzofuran-2-yl)-1-phenyl-1H-pyrazol-3-yl)prop-2-en-1-one [2d]
- GI% (SN12C): 3.48%
- GI% (EKVX): 2.15%
- GI% (UACC-257): 1.66%
- GI% (MALME-3M): 0.07%
- GI% (CAKI-1): 10.24%
- Mean GI% [1]: −0.94%
- GI% (SR): 14.03%
- GI% (RPMI-8226): 0.67%
- GI% (SNB-19): 4.33%
- GI% (K-562): 4.77%
- GI% (786–0): 0.74%
- GI% (MDA-MB-468): 1.87%
- GI% (MCF7): 5.90%
- GI% (SNB-75): 20.70%
- GI% (SF-539): 1.65%
- GI% (TK-10): 3.41%
- GI% (MOLT-4): 3.61%
- GI% (SK-OV-3): 4.37%
- GI% (T-47D): 7.67%
- GI% (BT-549): 15.03%
- GI% (HL-60(TB)): 8.55%
- GI% (UO-31): 7.86%
- GI% (NCI-H522): 0.40%
- GI% (SF-295): 4.39%
- GI% (HOP-62): 0.08%

Compound: 3-(5-(Benzofuran-2-yl)-1-phenyl-1H-pyrazol-3-yl)-1-(4-methoxyphenyl)prop-2-en-1-one [2b]
- GI% (EKVX): 5.88%
- GI% (MALME-3M): 1.29%
- GI% (NCI-H226): 0.47%
- GI% (HOP-92): 18.73%
- GI% (CCRF-CEM): 19.37%
- GI% (CAKI-1): 12.51%
- Mean GI% [1]: 0.61%
- GI% (SR): 16.61%
- GI% (RPMI-8226): 10.27%
- GI% (SNB-19): 6.26%
- GI% (K-562): 8.35%
- GI% (786–0): 1.04%
- GI% (MDA-MB-468): 65.44%
- GI% (MCF7): 0.75%
- GI% (SF-539): 3.20%
- GI% (TK-10): 6.22%
- GI% (MOLT-4): 7.84%
- GI% (SK-OV-3): 4.75%
- GI% (T-47D): 83.54%
- GI% (HL-60(TB)): 10.93%
- GI% (UO-31): 14.83%
- GI% (LOX IMVI): 4.44%
- GI% (NCI-H522): 0.40%
- GI% (PC-3): 4.83%
- GI% (SF-295): 7.09%
- GI% (OVCAR-5): 2.97%
- GI% (HOP-62): 2.25%
- GI% (UACC-62): 7.77%
- GI% (ACHN): 0.20%

Compound: c1ccc(C2=NNC(c3cn(-c4ccccc4)nc3-c3cc4ccccc4o3)C2)cc1 (centres unmarked) [3a, 3-(Benzofuran-2-yl)-4-(3-phenyl-4,5-dihydro-1H-pyrazol-5-yl)-1-phenyl-1H-pyrazole]
- GI% (SN12C): 12.27%
- GI% (EKVX): 6.43%
- GI% (UACC-257): 6.06%
- GI% (MALME-3M): 3.67%
- GI% (NCI-H226): 8.13%
- GI% (HOP-92): 22.19%
- GI% (KM12): 62.60%
- GI% (CCRF-CEM): 12.98%
- GI% (CAKI-1): 11.52%
- GI% (HCC-2998): 66.78%
- Mean GI% [1]: 2.24%
- GI% (SR): 15.96%
- GI% (RPMI-8226): 2.58%
- GI% (SNB-19): 5.98%
- GI% (U251): 2.33%
- GI% (A549/ATCC): 3.63%
- GI% (K-562): 6.49%
- GI% (MCF7): 7.06%
- GI% (SNB-75): −10.52%
- GI% (SF-539): 6.00%
- GI% (SK-MEL-28): 2.00%
- GI% (TK-10): 10.65%
- GI% (A498): 6.22%
- GI% (MOLT-4): 0.33%
- GI% (SK-MEL-5): 0.18%
- GI% (SW-620): 79.60%
- GI% (SK-OV-3): 8.93%
- GI% (T-47D): 10.71%
- GI% (BT-549): 0.80%
- GI% (HL-60(TB)): 0.73%
- GI% (HCT-116): 99.83%
- GI% (SK-MEL-2): −6.14%
- GI% (UO-31): 14.55%
- GI% (HCT-15): 75.31%
- GI% (HT29): 54.87%
- GI% (NCI-H522): 3.69%
- GI% (M14): 0.57%
- GI% (PC-3): 8.08%
- GI% (SF-295): 9.51%
- GI% (OVCAR-5): 3.74%
- GI% (HOP-62): 2.07%
- GI% (UACC-62): 7.34%
- GI% (MDA-MB-435): −6.37%

Compound: CC(=O)N1N=C(c2ccccc2)CC1c1cn(-c2ccccc2)nc1-c1cc2ccccc2o1 (centres unmarked) [4a, 1-(5-(3-(Benzofuran-2-yl)-1-phenyl-1H-pyrazol-4-yl)-3-phenyl-4,5-dihydropyrazol-1-yl)ethanone]
- GI% (EKVX): 6.06%
- GI% (MALME-3M): 1.02%
- GI% (NCI-H226): 0.69%
- GI% (HOP-92): 16.24%
- GI% (CCRF-CEM): 15.54%
- GI% (CAKI-1): 13.36%
- Mean GI% [1]: 1.66%
- GI% (SR): 17.00%
- GI% (RPMI-8226): 6.01%
- GI% (SNB-19): 5.00%
- GI% (U251): 1.60%
- GI% (K-562): 6.90%
- GI% (786–0): 2.59%
- GI% (MDA-MB-468): 3.32%
- GI% (MCF7): 11.19%
- GI% (SNB-75): 1.45%
- GI% (SF-539): 8.41%
- GI% (TK-10): 11.62%
- GI% (MOLT-4): 7.01%
- GI% (SK-MEL-5): 0.15%
- GI% (SK-OV-3): 9.60%
- GI% (T-47D): 12.41%
- GI% (BT-549): 9.06%
- GI% (HL-60(TB)): 2.27%
- GI% (UO-31): 15.50%
- GI% (LOX IMVI): 4.25%
- GI% (HCT-15): 2.61%
- GI% (HT29): 0.65%
- GI% (NCI-H522): 2.75%
- GI% (PC-3): 8.29%
- GI% (SF-295): 5.69%
- GI% (OVCAR-5): 3.55%
- GI% (HOP-62): 1.18%
- GI% (UACC-62): 8.33%

Compound: COc1ccc(C2=NN(C(C)=O)C(c3cn(-c4ccccc4)nc3-c3cc4ccccc4o3)C2)cc1 (centres unmarked) [4b, 1-(5-(3-(Benzofuran-2-yl)-1-phenyl-1H-pyrazol-4-yl)-3-(4-methoxyphenyl)-4,5-dihydropyrazol-1-yl)ethanone]
- GI% (MALME-3M): 0.92%
- GI% (HOP-92): 8.59%
- GI% (CCRF-CEM): 10.80%
- GI% (CAKI-1): 13.20%
- Mean GI% [1]: −2.13%
- GI% (SR): 12.12%
- GI% (RPMI-8226): 4.36%
- GI% (SNB-19): 2.45%
- GI% (K-562): 5.81%
- GI% (MDA-MB-468): 2.43%
- GI% (MCF7): 9.85%
- GI% (SF-539): 2.46%
- GI% (TK-10): 7.73%
- GI% (MOLT-4): 7.68%
- GI% (SK-OV-3): 4.82%
- GI% (T-47D): 2.42%
- GI% (HL-60(TB)): 0.51%
- GI% (UO-31): 17.79%
- GI% (LOX IMVI): 2.30%
- GI% (HCT-15): 0.50%
- GI% (NCI-H522): 1.65%
- GI% (PC-3): 6.35%
- GI% (HOP-62): 2.33%
- GI% (UACC-62): 5.56%

— article PMC12486440, “Design, synthesis, and in silico studies of new benzofuran–pyrazole hybrids as multi-kinase inhibitors with potential antiproliferative activity” (RSC Advances, 2025)
